In test [1] the test system is patients with primary hypercholesterolemia. Conditions: 4 weeks.
Test [2] has the same test system. The conditions noted are these: Lovastatin 10 mg/day, 4 weeks.
For test [3] the test system is unchanged. Briefly: Simvastatin Trial (6-week), colesevelam in combination with simvastatin. In kind it is in vivo, human. Conditions: 6 weeks.

We go through three compounds from patent US7261880B2, “Methods of treating Syndrome X with aliphatic polyamines” (priority 2001, dated 2007).

Like-named read-outs stand apart in the source and are kept apart here. Marks after values point to notes of the source that are not given here.

As for `CC(C)c1c(C(=O)Nc2ccccc2)c(-c2ccccc2)c(-c2ccc(F)cc2)n1CC[C@@H](O)C[C@@H](O)CC(=O)O` [Atorvastatin, atorvastatin], in test [1] (Atorvastatin 10 mg/day), the “Apo B mean percentage change” value is listed as −32* %, the “HDL-C median percentage change” value was “+8%”, the “LDL-C mean percentage change” value is given as −38* % and the “TG median percentage change” value is on record as −24* %. The “Total-C mean percentage change” value in test [1] (Atorvastatin 10 mg/day) is on record as −27* %. Further, in test [1] (Atorvastatin 80 mg/day), the “Apo B mean percentage change” value is given as −46* %, the “HDL-C median percentage change” value is on record as “+6%”, the “LDL-C mean percentage change” value is listed as −53* % and the “TG median percentage change” value was −33* %. In test [1] (Atorvastatin 80 mg/day), the “Total-C mean percentage change” value was −39* %.
On to `CC[C@H](C)C(=O)O[C@H]1C[C@@H](C)C=C2C=C[C@H](C)[C@H](CC[C@@H]3C[C@@H](O)CC(=O)O3)[C@H]21` [Lovastatin, lovastatin], for which, in test [2], the “Apo B mean percentage change” value is recorded as −16%, the “HDL-C median percentage change” value is recorded as “+5%”, the “LDL-C mean percentage change” value was −22* % and the “TG median percentage change” value is reported as 0%. The “Total-C mean percentage change” value in test [2] is recorded as −14* %.
Consider `CCC(C)(C)C(=O)O[C@H]1C[C@@H](C)C=C2C=C[C@H](C)[C@H](CC[C@@H]3C[C@@H](O)CC(=O)O3)[C@H]21` [Simvastatin, simvastatin], for which, in test [3] (Simvastatin 10 mg/day), the “Apo B mean percentage change” value is −20* %, the “HDL-C median percentage change” value is recorded as “+3* %”, the “LDL-C mean percentage change” value is −26* % and the “TG median percentage change” value is listed as −17* %. In addition, the “Total-C mean percentage change” value in test [3] (Simvastatin 10 mg/day) is recorded as −19* %. Further, in test [3] (Simvastatin 20 mg/day), the “Apo B mean percentage change” value is −26* %, the “HDL-C median percentage change” value is reported as “+7* %”, the “LDL-C mean percentage change” value is given as −34* % and the “TG median percentage change” value is −12* %. Further, the “Total-C mean percentage change” value in test [3] (Simvastatin 20 mg/day) is −23* %.
